± gives the expanded uncertainty stated by the source.
Conditions: Liquid, Vibrating tube method

CC(C)C(C)C(C)C [2,3,4-trimethylpentane]
Conditions | mass density [kg/m3]
283.15 K, 130 kPa | 728.3 ± 0.8
283.15 K, 4973 kPa | 732.2 ± 0.8
283.15 K, 9993 kPa | 736 ± 0.9
283.15 K, 14965 kPa | 739.6 ± 0.9
283.15 K, 20000 kPa | 743 ± 0.9
283.15 K, 25003 kPa | 746.3 ± 0.9
283.15 K, 29990 kPa | 749.5 ± 0.9
283.15 K, 35009 kPa | 752.5 ± 1
283.15 K, 39961 kPa | 755.4 ± 1
283.15 K, 45014 kPa | 758.3 ± 1
283.15 K, 49986 kPa | 761 ± 1
283.15 K, 54944 kPa | 763.6 ± 1
283.15 K, 60030 kPa | 766.3 ± 1.1
283.15 K, 65014 kPa | 768.8 ± 1.1
288.15 K, 102 kPa | 724.3 ± 0.8
288.15 K, 5015 kPa | 728.4 ± 0.8
288.15 K, 9991 kPa | 732.3 ± 0.9
288.15 K, 14975 kPa | 736 ± 0.9
288.15 K, 20038 kPa | 739.6 ± 0.9
288.15 K, 25021 kPa | 743 ± 0.9
288.15 K, 29929 kPa | 746.1 ± 0.9
288.15 K, 35037 kPa | 749.3 ± 1
288.15 K, 40039 kPa | 752.3 ± 1
288.15 K, 44998 kPa | 755.2 ± 1
288.15 K, 49927 kPa | 757.9 ± 1
288.15 K, 54967 kPa | 760.6 ± 1.1
288.15 K, 59925 kPa | 763.2 ± 1.1
288.15 K, 65032 kPa | 765.9 ± 1.1
293.15 K, 111 kPa | 720.4 ± 0.8
293.15 K, 5021 kPa | 724.6 ± 0.8
293.15 K, 9998 kPa | 728.6 ± 0.9
293.15 K, 14997 kPa | 732.4 ± 0.9
293.15 K, 19997 kPa | 736.1 ± 0.9
293.15 K, 25022 kPa | 739.6 ± 0.9
293.15 K, 29930 kPa | 742.8 ± 0.9
293.15 K, 34968 kPa | 746 ± 1
293.15 K, 39974 kPa | 749.1 ± 1
293.15 K, 45009 kPa | 752 ± 1
293.15 K, 49965 kPa | 754.9 ± 1
293.15 K, 54987 kPa | 757.6 ± 1.1
293.15 K, 59945 kPa | 760.3 ± 1.1
293.15 K, 65000 kPa | 762.9 ± 1.1
298.15 K, 105 kPa | 716.2 ± 0.8
298.15 K, 5072 kPa | 720.6 ± 0.8
298.15 K, 9964 kPa | 724.7 ± 0.9
298.15 K, 15013 kPa | 728.7 ± 0.9
298.15 K, 20054 kPa | 732.5 ± 0.9
298.15 K, 25008 kPa | 736 ± 0.9
298.15 K, 29968 kPa | 739.4 ± 0.9
298.15 K, 34937 kPa | 742.6 ± 1
298.15 K, 40018 kPa | 745.8 ± 1
298.15 K, 45064 kPa | 748.8 ± 1
298.15 K, 50010 kPa | 751.7 ± 1
298.15 K, 55015 kPa | 754.5 ± 1.1
298.15 K, 59955 kPa | 757.2 ± 1.1
298.15 K, 65024 kPa | 759.9 ± 1.1
303.15 K, 100 kPa | 712 ± 0.8
303.15 K, 4934 kPa | 716.5 ± 0.8
303.15 K, 10038 kPa | 720.9 ± 0.9
303.15 K, 14973 kPa | 724.9 ± 0.9
303.15 K, 19957 kPa | 728.7 ± 0.9
303.15 K, 25002 kPa | 732.4 ± 0.9
303.15 K, 29980 kPa | 735.9 ± 0.9
303.15 K, 34972 kPa | 739.3 ± 1
303.15 K, 39972 kPa | 742.5 ± 1
303.15 K, 44990 kPa | 745.6 ± 1
303.15 K, 49984 kPa | 748.5 ± 1
303.15 K, 54948 kPa | 751.4 ± 1.1
303.15 K, 59951 kPa | 754.2 ± 1.1
303.15 K, 65040 kPa | 756.9 ± 1.1
308.15 K, 92 kPa | 707.8 ± 0.8
308.15 K, 5051 kPa | 712.5 ± 0.8
308.15 K, 9961 kPa | 716.8 ± 0.9
308.15 K, 14959 kPa | 721 ± 0.9
308.15 K, 20027 kPa | 725 ± 0.9
308.15 K, 25025 kPa | 728.8 ± 0.9
308.15 K, 29996 kPa | 732.4 ± 0.9
308.15 K, 34959 kPa | 735.7 ± 1
308.15 K, 40017 kPa | 739.1 ± 1
308.15 K, 45023 kPa | 742.2 ± 1
308.15 K, 49965 kPa | 745.2 ± 1
308.15 K, 54977 kPa | 748.2 ± 1.1
308.15 K, 60020 kPa | 751 ± 1.1
308.15 K, 64995 kPa | 753.8 ± 1.1
313.15 K, 99 kPa | 703.6 ± 0.8
313.15 K, 4997 kPa | 708.5 ± 0.8
313.15 K, 9998 kPa | 713.1 ± 0.9
313.15 K, 15010 kPa | 717.4 ± 0.9
313.15 K, 19994 kPa | 721.4 ± 0.9
313.15 K, 25007 kPa | 725.3 ± 0.9
313.15 K, 29995 kPa | 729 ± 0.9
313.15 K, 35008 kPa | 732.4 ± 1
313.15 K, 39993 kPa | 735.8 ± 1
313.15 K, 45005 kPa | 739 ± 1
313.15 K, 49990 kPa | 742.1 ± 1
313.15 K, 55003 kPa | 745.1 ± 1.1
313.15 K, 59996 kPa | 748 ± 1.1
313.15 K, 64993 kPa | 750.8 ± 1.1
318.15 K, 104 kPa | 699.5 ± 0.8
318.15 K, 4961 kPa | 704.4 ± 0.8
318.15 K, 10003 kPa | 709.2 ± 0.9
318.15 K, 15026 kPa | 713.7 ± 0.9
318.15 K, 19937 kPa | 717.8 ± 0.9
318.15 K, 25012 kPa | 721.8 ± 0.9
318.15 K, 29990 kPa | 725.5 ± 1
318.15 K, 34991 kPa | 729.1 ± 1
318.15 K, 39976 kPa | 732.5 ± 1
318.15 K, 45028 kPa | 735.8 ± 1
318.15 K, 49973 kPa | 739 ± 1.1
318.15 K, 54916 kPa | 742 ± 1.1
318.15 K, 59988 kPa | 744.9 ± 1.1
318.15 K, 65015 kPa | 747.8 ± 1.1
323.15 K, 111 kPa | 695.4 ± 0.8
323.15 K, 5025 kPa | 700.6 ± 0.8
323.15 K, 10013 kPa | 705.5 ± 0.9
323.15 K, 14973 kPa | 710 ± 0.9
323.15 K, 20028 kPa | 714.4 ± 0.9
323.15 K, 25014 kPa | 718.4 ± 0.9
323.15 K, 29976 kPa | 722.2 ± 1

— the NIST ThermoML archive (doi:10.1021/acs.jced.9b00846)
